Like-named read-outs stand apart in the source and are kept apart here. Where a SMILES comes first, the peptide text is derived from it. Bridges are numbered along the chain shown (N, C = ends). [ ]: non-standard residue; d: D form. The star is where a group is joined. hPhe(3,5-F2-4-CF3) = N[C@@H](CCc1cc(F)c(C(F)(F)F)c(F)c1)C(=O)O; hPhe(3-Cl-4-CF3) = N[C@@H](CCc1ccc(C(F)(F)F)c(Cl)c1)C(=O)O; NPrPhe(4-CF3) = CCCN[C@@H](Cc1ccc(C(F)(F)F)cc1)C(=O)O; NMeGly(cPent) = CN[C@H](C(=O)O)C1CCCC1; NMeD = CN[C@@H](CC(=O)O)C(=O)O; NMeL = CN[C@@H](CC(C)C)C(=O)O; Iva = CC[C@](C)(N)C(=O)O; Morpholide = C1CN(*)CCO1; Ac5c = NC1(C(=O)O)CCCC1; Aze = O=C(O)[C@@H]1CCN1; NEtG = CCNCC(=O)O; Sar = CNCC(=O)O

Assay [1] addresses GDP-bound KRAS wild-type protein (Homo sapiens, UniProt P01116). Briefly: Binding to KRAS by surface plasmon resonance (SPR), Single Cycle Kinetics. As to conditions: GDP-bound KRAS wild-type protein, read-out: KRAS KD.
Assay [2] addresses GDP-bound NRAS wild-type protein (Homo sapiens, UniProt P01111). The assay is described as follows: Binding to NRAS by surface plasmon resonance (SPR), Single Cycle Kinetics. As to conditions: SPR; for NRAS/KRAS (ratio of KD value with respect to NRAS to KD value with respect to KRAS) / NRAS/KRAS (ratio of KD value for NRAS to KD value for KRAS): GDP-bound NRAS wild-type protein vs GDP-bound KRAS wild-type protein. Background: Surface plasmon resonance follows binding to a sensor surface in real time, without labels.

The target of assay [3] is GDP-bound HRAS wild-type protein (Homo sapiens, UniProt P01112). The assay is described as follows: Binding to HRAS by surface plasmon resonance (SPR), Single Cycle Kinetics. As to conditions: SPR; for HRAS/KRAS (ratio of KD value with respect to HRAS to KD value with respect to KRAS) / HRAS/KRAS (ratio of KD value for HRAS to KD value for KRAS): GDP-bound HRAS wild-type protein vs GDP-bound KRAS wild-type protein.
GDP-bound HRAS wild-type protein, sequence (P01112 whole entry): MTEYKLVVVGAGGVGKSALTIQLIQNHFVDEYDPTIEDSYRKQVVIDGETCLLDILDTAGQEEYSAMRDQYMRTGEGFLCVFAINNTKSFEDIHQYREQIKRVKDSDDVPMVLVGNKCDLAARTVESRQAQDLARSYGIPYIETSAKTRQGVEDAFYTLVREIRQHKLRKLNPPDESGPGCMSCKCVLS

Setting [4] is: SPR Single Cycle Kinetics, 1:1 binding model.

GDP-bound NRAS wild-type protein, sequence (P01111 whole entry): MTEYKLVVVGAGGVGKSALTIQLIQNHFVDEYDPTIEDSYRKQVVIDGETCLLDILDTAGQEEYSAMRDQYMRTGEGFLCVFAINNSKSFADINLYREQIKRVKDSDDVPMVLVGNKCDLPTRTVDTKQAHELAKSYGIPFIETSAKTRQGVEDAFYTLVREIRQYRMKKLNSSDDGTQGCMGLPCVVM
GDP-bound KRAS wild-type protein, sequence (P01116 whole entry): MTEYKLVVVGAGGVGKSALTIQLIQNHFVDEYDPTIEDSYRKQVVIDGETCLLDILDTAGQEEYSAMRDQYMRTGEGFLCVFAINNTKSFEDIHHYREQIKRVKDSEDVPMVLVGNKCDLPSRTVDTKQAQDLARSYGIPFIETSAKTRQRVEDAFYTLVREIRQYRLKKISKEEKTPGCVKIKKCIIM

Broadly, the Kd is the equilibrium constant for the complex coming apart. As for `CCCN1C(=O)[C@@H]2CCN2C(=O)CN(C)C(=O)[C@H]([C@@H](C)CC)NC(=O)[C@H](CC(C)C)N(C)C(=O)C[C@@H](C(=O)N2CCOCC2)N(C)C(=O)[C@H](C2CCCC2)N(C)C(=O)[C@](C)(CC)NC(=O)[C@@H]2CCCN2C(=O)[C@H](CCc2cc(F)c(C(F)(F)F)c(F)c2)NC(=O)CN(C)C(=O)[C@@H]1Cc1ccc(C(F)(F)F)cc1` [PP0790] ([NMeL]I[Sar][Aze][NPrPhe(4-CF3)][Sar][hPhe(3,5-F2-4-CF3)]P[Iva][NMeGly(cPent)][NMeD]-Morpholide; lactam N-11), the Kd in assay [1] (setting [4]) was found to be 0.56 nM. The “NRAS/KRAS (ratio of KD value with respect to NRAS to KD value with respect to KRAS)” value in assay [2] is “C (A compound having a KD ratio of 0.1 or more and less than 3 is denoted as C)”. Further, the “HRAS/KRAS (ratio of KD value with respect to HRAS to KD value with respect to KRAS)” value in assay [3] was “B (a compound having 3 or more and less than 10 is denoted as B)”.

For `CCO[C@@H]1C[C@H]2C(=O)NC3(CCC3)C(=O)N(C)[C@@H](C3CCCC3)C(=O)N(C)[C@H](C(=O)N(C)C)CC(=O)N(C)[C@@H](CC(C)C)C(=O)N[C@@H]([C@@H](C)CC)C(=O)N3CC[C@H]3C(=O)N(C)[C@H]3CC(C)=CCN(C3=O)[C@@H](Cc3ccc(C(F)(F)F)cc3)C(=O)N(C)CC(=O)N[C@@H](CCc3cc(F)c(C(F)(F)F)c(F)c3)C(=O)N2C1` [PP1033], the Kd in assay [1] (SPR, Single Cycle Kinetics) was 0.43 nM. For the same compound, in assay [2], the “NRAS/KRAS (ratio of KD value for NRAS to KD value for KRAS)” value is “C (A compound having a KD ratio of 0.1 or more and less than 3 is denoted as C)”. Also, the “HRAS/KRAS (ratio of KD value for HRAS to KD value for KRAS)” value in assay [3] is “C (A compound having a KD ratio of 0.1 or more and less than 3 is denoted as C)”.

Take `CCO[C@@H]1C[C@H]2C(=O)NC3(CC(C)(C)C3)C(=O)N(C)[C@@H](C(CC)CC)C(=O)N(C)[C@H](C(=O)N(C)C)CC(=O)N(C)[C@@H](CC(C)C)C(=O)N[C@@H]([C@@H](C)CC)C(=O)N(C)CC(=O)N(C)[C@H]3C/C=C\CCN(C3=O)[C@@H](Cc3ccc(C(F)(F)F)cc3)C(=O)N(C)CC(=O)N[C@@H](CCc3ccc(Cl)c(Cl)c3)C(=O)N2C1` [PP2176]: the Kd in assay [1] (SPR, Single Cycle Kinetics) stood at 0.47 nM. For the same compound, the “NRAS/KRAS (ratio of KD value for NRAS to KD value for KRAS)” value in assay [2] is listed as “AA (a compound having 20 or more is denoted as AA)”. In assay [3], the “HRAS/KRAS (ratio of KD value for HRAS to KD value for KRAS)” value was “A (a compound having 10 or more and less than 20 is denoted as A)”.

Regarding `CCCN1C(=O)CN(C)C(=O)CN(CC)C(=O)[C@H]([C@@H](C)CC)NC(=O)[C@H](CC(C)C)N(C)C(=O)C[C@@H](C(=O)N2CCOCC2)N(C)C(=O)[C@H](C2CCCC2)N(C)C(=O)C2(CCCC2)NC(=O)[C@@H]2CCN2C(=O)[C@H](CCc2ccc(C(F)(F)F)c(Cl)c2)NC(=O)CN(C)C(=O)[C@@H]1Cc1ccc(C(F)(F)F)cc1` [PP0294] ([NMeL]I[NEtG][Sar][NPrPhe(4-CF3)][Sar][hPhe(3-Cl-4-CF3)][Aze][Ac5c][NMeGly(cPent)][NMeD]-Morpholide; lactam N-11), the dissociation constant (Kd) in assay [1] (setting [4]) was found to be 1.7 nM. Besides, in assay [2], the “NRAS/KRAS (ratio of KD value for NRAS to KD value for KRAS)” value was “B (a compound having 3 or more and less than 10 is denoted as B)”. Moreover, the “HRAS/KRAS (ratio of KD value for HRAS to KD value for KRAS)” value in assay [3] was “C (A compound having a KD ratio of 0.1 or more and less than 3 is denoted as C)”.

Take `CCO[C@@H]1C[C@H]2C(=O)NC3(CCCC3)C(=O)N(C)[C@@H](C3CCCC3)C(=O)N(C)[C@H](C(=O)N3CCOCC3)CC(=O)N(C)[C@@H](CC)C(=O)N[C@@H]([C@@H](C)CC)C(=O)N(C)CC(=O)N(C)[C@H]3CC(C)=CCN(C3=O)[C@@H](Cc3ccc(C(F)(F)F)cc3)C(=O)N(C)CC(=O)N[C@@H](CCc3cc(F)c(C(F)(F)F)c(F)c3)C(=O)N2C1` [PP1043]: the Kd in assay [1] (SPR, Single Cycle Kinetics) is 2.4 nM. For the same compound, the “NRAS/KRAS (ratio of KD value for NRAS to KD value for KRAS)” value in assay [2] was “C (A compound having a KD ratio of 0.1 or more and less than 3 is denoted as C)”. In assay [3], the “HRAS/KRAS (ratio of KD value for HRAS to KD value for KRAS)” value was “C (A compound having a KD ratio of 0.1 or more and less than 3 is denoted as C)”.

With `CCO[C@@H]1C[C@H]2C(=O)NC3(CCC3)C(=O)N(C)[C@@H](C3CCCC3)C(=O)N(C)[C@H](C(=O)N(C)CC)CC(=O)N(C)[C@H]3CCC/C=C/c4ccc(cc4)C[C@@H](C(=O)N(C)CC(=O)N[C@@H](CCc4ccc(C(F)(F)F)c(OC)c4)C(=O)N2C1)N1CC/C=C\C[C@@H](C1=O)N(C)C(=O)CN(C)C(=O)[C@H]([C@@H](C)CC)NC3=O` [PP1834], the Kd in assay [1] (SPR, Single Cycle Kinetics) was found to be 0.065 nM. Besides, the “NRAS/KRAS (KD ratio)” value in assay [2] (ratio of KD for GDP-bound NRAS wild-type protein to KD for KRAS) was “A (a compound having 10 or more and less than 20 is denoted as A)”. Also, the “HRAS/KRAS (KD ratio)” value in assay [3] (ratio of KD for GDP-bound HRAS wild-type protein to KD for KRAS) was “B (a compound having 3 or more and less than 10 is denoted as B)”.

In the case of `CC[C@H](C)[C@@H]1NC(=O)[C@H](CC(C)C)N(C)C(=O)C[C@@H](C(=O)N(C)C)N(C)C(=O)[C@H](C2CCCC2)N(C)C(=O)C2(CCC2)NC(=O)[C@@H]2CCCN2C(=O)[C@H](CCc2cc(F)c(C(F)(F)F)c(F)c2)NC(=O)CN(C)C(=O)[C@H](Cc2ccc(C(F)(F)F)cc2)N2CCCCC[C@@H](C2=O)N(C)C(=O)CN(C)C1=O` [PP0512], the Kd in assay [1] (setting [4]) stood at 0.37 nM. In addition, the “NRAS/KRAS (ratio of KD value with respect to NRAS to KD value with respect to KRAS)” value in assay [2] is “B (a compound having 3 or more and less than 10 is denoted as B)”. For the same compound, the “HRAS/KRAS (ratio of KD value with respect to HRAS to KD value with respect to KRAS)” value in assay [3] is “B (a compound having 3 or more and less than 10 is denoted as B)”.

These data come from patent US20240158446A1, “CYCLIC COMPOUND HAVING SELECTIVE INHIBITORY ACTION ON KRAS OVER HRAS AND NRAS” (CHUGAI SEIYAKU KABUSHIKI KAISHA, priority 2021, published 2024).
